Reference: patent US20250353912A1, “COMPOSITIONS AND METHODS COMPRISING ANTIBODIES THAT BIND TO COVALENT PEPTIDE CONJUGATES” (New York University, priority 2022, published 2025)

What was measured:
H2122 cells = experiment: Cell viability following exposure to sotorasib for 72 hr; type: cell-based; details: FIG. 43A
H358 cells = experiment: as above; type: cell-based; details: 0.1 μM sotorasib, FIG. 43A
[1] = cited from earlier work
[2] = second line disease, versus docetaxel

C=CC(=O)N1CCN(c2nc(=O)n(-c3c(C)ccnc3C(C)C)c3nc(-c4c(O)cccc4F)c(F)cc23)[C@@H](C)C1 [sotorasib]
sotorasib concentration up to which H2122 is resistant (H2122 cells): ~10 µM | killing of H358 cells (H358 cells): nearly all of the H358 cells were killed | patients removed from the study because of liver toxicity ([1]; in vivo): six patients | patients with drug-induced liver injury ([1]; in vivo): two patients | patients with grade 3/4 liver toxicity ([1]; in vivo): 10% | overall survival [1, 2]: no impact | progression-free survival [1, 2]: improved by one month
